# Data as given in ChEMBL document CHEMBL5661943, “ASAP - In vitro antiviral effect” (2024).
# Assays:
# dengue virus type 2 = assay: Functional assay to measure dose dependent changes in antiviral-drug inhibitory efficacy against Dengue virus type 2 New Guinea C in Vero E6 miRFP670 cells (cotreated with P-gp inhibitor, CP100356). Cells are treated with antiviral candidates that are serially diluted, following infection, cells are fixed. EC50 is reported via analysis of fluorescence intensity using high-content imager. The …; assay type: organism-based, Chlorocebus sabaeus, Vero C1008; details: Dengue virus; for EC90: P-gp concentration 500 nM, P-gp inhibitor CP100356
# Zika virus = assay: Functional CPE-based assay to measure dose dependent changes in antiviral-drug inhibitory efficacy against Zika virus MR766 in Vero E6 miRFP670 cells (cotreated with P-gp inhibitor, CP100356). Cells are treated with antiviral candidates that are serially diluted. EC50 is reported via analysis of MTS assay as a readout of CPE. The assay has been performed by KU Leuven.; assay type: organism-based, Chlorocebus sabaeus, Vero C1008; details: Zika virus
SMILES,EC50 (dengue virus type 2; Vero C1008) [µM],EC50 (Zika virus; Vero C1008) [µM],further results
Cc1ncc(-c2cc(F)cc(C(=O)Nc3ccc4c(c3)CNC4)c2)o1,16.5,> 6.25,"EC90 (dengue virus type 2; Vero C1008, Baseline response 0 %, Hill slope -0.224, Maximum measured 78.762 %, Maximum response 100 %, Minimum measured 32.755 %, R squared 0.24): > 50 µM; EC90 (Zika virus; Vero C1008, Baseline response 0 %, Hill slope 1.881, Maximum measured 43.228 %, Maximum response 100 %, Minimum measured 5.06 %, P-gp concentration 500 nM, R squared 0.9, P-gp inhibitor CP100356): > 6.25 µM"
O=C(Nc1cc2c(cc1Br)CNC2)c1cc(Cl)cc2[nH]ncc12,> 12.5,1.53,"EC90 (dengue virus type 2; Vero C1008, Baseline response 0 %, Hill slope -0.294, Maximum measured 95.105 %, Maximum response 100 %, Minimum measured 44.86 %, R squared 0.086): > 12.5 µM; EC90 (Zika virus; Vero C1008, Baseline response 0 %, EC90 CI (lower) 0.641 uM, EC90 CI (upper) 7.527 uM, Hill slope 6.115, Maximum measured 127.201 %, Maximum response 100 %, Minimum measured 6.803 %, P-gp concentration 500 nM, R squared 0.89, P-gp inhibitor CP100356): 2.2 µM"
O=C(Nc1ccc2c(c1)CN[C@H]2C[C@H](O)CO)c1cc(F)cc2[nH]ncc12,> 50,> 50,"EC90 (dengue virus type 2; Vero C1008, Baseline response 0 %, Hill slope 0.494, Maximum measured 181.349 %, Maximum response 100 %, Minimum measured 67.92 %, R squared 0.043): > 50 µM; EC90 (Zika virus; Vero C1008, Maximum measured 5.346 %, Minimum measured 2.665 %, P-gp concentration 500 nM, P-gp inhibitor CP100356): > 50 µM"
O=C(NCC(F)F)[C@H](Nc1ccc2c(c1)CNC2)c1cc(F)cc2[nH]ccc12,> 50,> 50,"EC90 (dengue virus type 2; Vero C1008, Maximum measured 207.16 %, Minimum measured 119.939 %): > 50 µM; EC90 (Zika virus; Vero C1008, Baseline response 0 %, Hill slope 0.152, Maximum measured 3.288 %, Maximum response 100 %, Minimum measured 0.363 %, P-gp concentration 500 nM, R squared 0.104, P-gp inhibitor CP100356): > 50 µM"
CCCn1cc2c(C(=O)Nc3ccc4c(c3)CNC4)cc(Cl)cc2n1,> 3.12,3.04,"EC90 (dengue virus type 2; Vero C1008, Baseline response 0 %, Hill slope 1.203, Maximum measured 92.059 %, Maximum response 100 %, Minimum measured 55.102 %, R squared 0.785): > 3.12 µM; EC90 (Zika virus; Vero C1008): 3.55 µM"
O=C(NCCC1CC1)[C@H](Nc1ccc2c(c1)CNC2)c1cc(Cl)cc(C2CC2)c1,> 12.5,5.72,"EC90 (dengue virus type 2; Vero C1008, Baseline response 0 %, Hill slope -1.051, Maximum measured 118.853 %, Maximum response 100 %, Minimum measured 76.41 %, R squared 0.201): > 12.5 µM; EC90 (Zika virus; Vero C1008, Baseline response 0 %, Hill slope 7.335, Maximum measured 65.758 %, Maximum response 100 %, Minimum measured 0.052 %, P-gp concentration 500 nM, R squared 0.996, P-gp inhibitor CP100356): > 6.25 µM"
O=C(Nc1ccc2c(c1)CNC2)c1cc(F)cc(-c2cccnc2)c1,0.651,6.3,"EC90 (dengue virus type 2; Vero C1008, Baseline response 0 %, Hill slope -0.704, Maximum measured 60.172 %, Maximum response 100 %, Minimum measured 15.025 %, R squared 0.92): > 12.5 µM; EC90 (Zika virus; Vero C1008, Baseline response 0 %, Hill slope 23.488, Maximum measured 123.724 %, Maximum response 100 %, Minimum measured 1.449 %, P-gp concentration 500 nM, R squared 0.923, P-gp inhibitor CP100356): 6.91 µM"
O=C(Nc1ccc2c(c1)CNC2)c1cccc2c1[C@]1(CCNC1)C(=O)N2,> 12.5,> 50,"EC90 (dengue virus type 2; Vero C1008, Maximum measured 172.695 %, Minimum measured 97.519 %): > 12.5 µM; EC90 (Zika virus; Vero C1008, Baseline response 0 %, Hill slope 1.1, Maximum measured 3.95 %, Maximum response 100 %, Minimum measured -2.689 %, P-gp concentration 500 nM, R squared 0.205, P-gp inhibitor CP100356): > 50 µM"
Cc1ncc(-c2cc(F)cc(C(=O)Nc3ccc4c(c3)CNC4)c2)s1,> 25,3.77,"EC90 (dengue virus type 2; Vero C1008, Maximum measured 125.186 %, Minimum measured 53.808 %): > 25 µM; EC90 (Zika virus; Vero C1008, Baseline response 0 %, EC90 CI (lower) 3.392 uM, EC90 CI (upper) 11.052 uM, Hill slope 4.52, Maximum measured 126.226 %, Maximum response 100 %, Minimum measured 6.868 %, P-gp concentration 500 nM, R squared 0.912, P-gp inhibitor CP100356): 6.12 µM"
O=C(Nc1cc(Br)c2c(c1)CNC2)c1cc(F)cc2[nH]ncc12,> 50,1.56,"EC90 (dengue virus type 2; Vero C1008, Baseline response 0 %, Hill slope -0.743, Maximum measured 120.32 %, Maximum response 100 %, Minimum measured 52.999 %, R squared 0.166): > 50 µM; EC90 (Zika virus; Vero C1008, Baseline response 0 %, Hill slope 40.279, Maximum measured 114.894 %, Maximum response 100 %, Minimum measured 2.051 %, P-gp concentration 500 nM, R squared 0.957, P-gp inhibitor CP100356): 1.65 µM"
O=C(NCC(F)F)[C@H](Nc1ccc2c(c1)CNC2)c1cc(F)cc2[nH]ncc12,> 50,17.9,"EC90 (dengue virus type 2; Vero C1008, Maximum measured 213.694 %, Minimum measured 101.734 %): > 50 µM; EC90 (Zika virus; Vero C1008, Baseline response 0 %, Hill slope 1.433, Maximum measured 86.437 %, Maximum response 100 %, Minimum measured 5.781 %, P-gp concentration 500 nM, R squared 0.963, P-gp inhibitor CP100356): > 50 µM"
O=C(Nc1ccc2c(c1)CNC2)c1cc(F)cc(-c2c[nH]c(=O)c(F)c2)c1,> 25,> 50,"EC90 (dengue virus type 2; Vero C1008, Baseline response 0 %, Hill slope 1.228, Maximum measured 158.309 %, Maximum response 100 %, Minimum measured 64.759 %, R squared 0.303): > 25 µM; EC90 (Zika virus; Vero C1008, Maximum measured 1.475 %, Minimum measured -1.93 %, P-gp concentration 500 nM, P-gp inhibitor CP100356): > 50 µM"
O=C(Nc1cc2c(cc1C1CC1)CNC2)c1cc(F)cc2[nH]ncc12,> 3.12,7.12,"EC90 (dengue virus type 2; Vero C1008, Maximum measured 158.599 %, Minimum measured 73.357 %): > 3.12 µM; EC90 (Zika virus; Vero C1008, Baseline response 0 %, EC90 CI (lower) 6.176 uM, EC90 CI (upper) 30.178 uM, Hill slope 3.376, Maximum measured 139.956 %, Maximum response 100 %, Minimum measured 0.398 %, P-gp concentration 500 nM, R squared 0.839, P-gp inhibitor CP100356): 13.7 µM"
O=C(Nc1ccc2c(c1)CNC2)c1cc(Cl)cc2[nH]c(-c3cc(C4CC4)[nH]n3)nc12,> 3.12,> 0.781,"EC90 (dengue virus type 2; Vero C1008, Maximum measured 213.616 %, Minimum measured 78.099 %): > 3.12 µM; EC90 (Zika virus; Vero C1008, Baseline response 0 %, Hill slope 2.134, Maximum measured 7.792 %, Maximum response 100 %, Minimum measured 1.889 %, P-gp concentration 500 nM, R squared 0.797, P-gp inhibitor CP100356): > 0.781 µM"
O=C(Nc1ccc2c(c1)CN[C@H]2CCO)c1cc(F)cc2[nH]ncc12,> 50,> 50,"EC90 (dengue virus type 2; Vero C1008, Baseline response 0 %, Hill slope 0.366, Maximum measured 128.215 %, Maximum response 100 %, Minimum measured 81.639 %, R squared 0.156): > 50 µM; EC90 (Zika virus; Vero C1008, Baseline response 0 %, Hill slope 1.133, Maximum measured 29.989 %, Maximum response 100 %, Minimum measured 0.147 %, P-gp concentration 500 nM, R squared 0.888, P-gp inhibitor CP100356): > 50 µM"
C=CC[C@H]1NCc2cc(NC(=O)c3cc(F)cc4c3CC(=O)N4)ccc21,> 50,8.05,"EC90 (dengue virus type 2; Vero C1008, Baseline response 0 %, Hill slope 1.022, Maximum measured 178.628 %, Maximum response 100 %, Minimum measured 80.7 %, R squared 0.039): > 50 µM; EC90 (Zika virus; Vero C1008): 19.4 µM"
Cc1cnccc1-c1cc(NC(=O)c2cc(F)cc3[nH]ncc23)cc2c1CNC2,> 25,> 50,"EC90 (dengue virus type 2; Vero C1008, Maximum measured 259.167 %, Minimum measured 80.59 %): > 25 µM; EC90 (Zika virus; Vero C1008, Baseline response 0 %, Hill slope 2.277, Maximum measured 10.357 %, Maximum response 100 %, Minimum measured -2.491 %, P-gp concentration 500 nM, R squared 0.469, P-gp inhibitor CP100356): > 50 µM"
Cc1cc(-c2cc(F)cc(C(=O)Nc3ccc4c(c3)CNC4)c2)[nH]n1,> 50,19.3,"EC90 (dengue virus type 2; Vero C1008, Baseline response 0 %, Hill slope 1.641, Maximum measured 129.562 %, Maximum response 100 %, Minimum measured 66.397 %, R squared 0.205): > 50 µM; EC90 (Zika virus; Vero C1008, Baseline response 0 %, Hill slope 1.404, Maximum measured 64.496 %, Maximum response 100 %, Minimum measured 4.475 %, P-gp concentration 500 nM, R squared 0.907, P-gp inhibitor CP100356): > 25 µM"
N#Cc1cccc(-c2nc3c(C(=O)Nc4ccc5c(c4)CNC5)cc(Cl)cc3[nH]2)c1,> 50,> 3.12,"EC90 (dengue virus type 2; Vero C1008, Maximum measured 129.968 %, Minimum measured 100.984 %): > 50 µM; EC90 (Zika virus; Vero C1008, Baseline response 0 %, Hill slope 0.859, Maximum measured 7.667 %, Maximum response 100 %, Minimum measured 0.919 %, P-gp concentration 500 nM, R squared 0.501, P-gp inhibitor CP100356): > 3.12 µM"
O=C(Nc1cc2c(c(-c3ccnnc3)c1)CNC2)c1cc(Cl)cc2[nH]ncc12,> 6.25,> 50,"EC90 (dengue virus type 2; Vero C1008, Baseline response 0 %, Hill slope 3.411, Maximum measured 174.98 %, Maximum response 100 %, Minimum measured 62.735 %, R squared 0.059): > 6.25 µM; EC90 (Zika virus; Vero C1008, Baseline response 0 %, Hill slope 0.648, Maximum measured 22.176 %, Maximum response 100 %, Minimum measured 1.861 %, P-gp concentration 500 nM, R squared 0.877, P-gp inhibitor CP100356): > 50 µM"
